The values that follow come from article PMC8065421, “Repurposing Drugs for Mayaro Virus: Identification of EIDD-1931, Favipiravir and Suramin as Mayaro Virus Inhibitors” (Microorganisms, 2021).

Like-named read-outs stand apart in the source and are kept apart here.

In series [1] the test system is MAYV. The series can be described thus: Antiviral CPE reduction assay. Format: cell-based, Mayaro virus (MAYV) strain TC625. As to conditions: for Activity against MAYV (inhibition of MAYV-induced CPE): MOI 0.01.
The nature of series [2]: Cytotoxicity assay on uninfected cells. As to conditions: African green monkey.
Series [3] has as its system CHIKV. Particulars: against CHIKV; cited from earlier work.
For series [4], the system named is MAYV. Format: cell-based, Mayaro virus (MAYV) strain TC625. As to conditions: for decrease in relative infectivity (ratio infectious virus vs. viral RNA): supernatant.
For series [5], the system named is MAYV. The series can be described thus: Delay of treatment assay. Format: cell-based, Mayaro virus (MAYV) strain TC625. Particulars: for reduction of intracellular RNA by time of addition: EIDD-1931 25 µM, favipiravir 300 µM, suramin 500 µM, qRT-PCR. (In general: Quantitative PCR measures a nucleic acid by following its amplification.)
Series [6] has as its system Vero cells. The series can be described thus: Cytotoxicity assay on uninfected cells.
Series [7] is described as follows: in vitro. As to conditions: African green monkey.
Series [8] relates to MAYV. Particulars: virus yield assay, cited from earlier work.

Usually EC50 stands for the concentration needed to bring the measured effect to its halfway point. `C[C@@]1(O)[C@H](O)[C@@H](CO)O[C@H]1n1ccc(N)nc1=O` [2’CMC, 2′-C-methylcytidine] had an EC50 in series [1] (Mayaro virus, Vero, 72 h) greater than 20 µM. Also, the “Activity against MAYV (inhibition of MAYV-induced CPE)” value in series [1] (Vero cells) is “not able to inhibit MAYV”. Moreover, the CC50 at 3 days in series [2] was 167 ± 7 µM.

The compound `C[C@@]1(O)[C@H](O)[C@@H](CO)O[C@H]1n1ccc2c(N)ncnc21` [7DMA, 7-Deaza-2′-C-methyladenosine] displayed an EC50 in series [1] (Mayaro virus, Vero, 72 h) greater than 60 µM. In series [1] (Vero cells), the “Activity against MAYV (inhibition of MAYV-induced CPE)” value is recorded as “not able to inhibit MAYV”. The compound also returned a CC50 at 3 days in series [2] greater than 600 µM.

In the case of `CCOC(=O)c1c(CSc2ccccc2)n(C)c2cc(Br)c(O)c(CN(C)C)c12` [Arbidol], the EC50 in series [1] (Mayaro virus, Vero, 72 h) was greater than 60 µM; in series [3] it was 12 µM. The “Activity against MAYV (inhibition of MAYV-induced CPE)” value in series [1] (Vero cells) is given as “did not show activity against MAYV”. Further, the CC50 at 3 days in series [2] is greater than 100 µM.

Take `CCN(CC)CCCC(C)Nc1ccnc2cc(Cl)ccc12` (centres unmarked) [Chloroquine]: the EC50 in series [1] (Mayaro virus, Vero, 72 h) was greater than 200 µM; in series [3] it was roughly 10 µM. For the same compound, in series [1] (Vero cells), the “Activity against MAYV (inhibition of MAYV-induced CPE)” value was “did not show activity against MAYV”.

For `O=c1nc(NO)ccn1[C@@H]1O[C@H](CO)[C@@H](O)[C@H]1O` [EIDD-1931, β-D-N^4-hydroxycytidine], the EC50 in series [1] (Vero cells, MAYV MOI 0.01, day 3 pi, MTS/PMS read-out) amounted to 1.6 ± 0.5 µM. For the same compound, in series [4], the “decrease in infectious virus” value was ~ 8 log10; the “reduction in viral RNA and infectious virus content with increasing concentrations” value (from here on “reduction … with increasing concentrations”) was “dose-dependent reduction”. The “inhibitory effect in virus yield assay” value in series [4] (3.1 µM) is “inhibitory effect was still observed”. Besides, the “decrease in relative infectivity (ratio infectious virus vs. viral RNA)” value in series [4] (starting from 6 µM) was ~ 1000 fold. Moreover, in series [5] (25 µM, added at 6 h pi), the “activity on infectious virus” value is given as “modest activity”. Also, in series [5] (25 µM, added until 4 h pi, […], 10 h pi), the “decrease in infectious virus” value is on record as 2–3 log10. Also, the “reduction of intracellular RNA by time of addition” value (shortened to “reduction of intracellular RNA”) in series [5] ([…], 10 h pi) is “still resulted in a reduction when added until 2 h pi”. The CC50 in series [6] (uninfected Vero cells, day 3, microscopically or MTS/PMS) was greater than 100 µM.

With `NC(=O)c1nc(F)c[nH]c1=O` [Favipiravir], the EC50 in series [1] (Mayaro virus, Vero, 72 h) amounted to 79 ± 4 µM. Moreover, in series [4], the “decrease in infectious virus” value is listed as ~ 8 log10; the “reduction … with increasing concentrations” value is given as “dose-dependent reduction”. In addition, in series [4] (75 µM), the “inhibitory effect in virus yield assay” value was “inhibitory effect was still observed”. The “decrease in relative infectivity (ratio infectious virus vs. viral RNA)” value in series [4] (starting from 75 µM) is recorded as ~ 100 fold. Besides, the “reduction of viral titers” value in series [5] (300 µM, added until 2 h pi, […], 10 h pi) is 2–3 log10. Further, the “reduction of intracellular RNA” value in series [5] ([…], 10 h pi) was “only when added at early time points (2 h prior to infection and 0 h pi)”. In series [2], this compound gave a CC50 at 3 days of 2840 ± 86 µM.

On to `Nc1ncnc2c([C@@H]3N[C@H](CO)[C@@H](O)[C@H]3O)c[nH]c12` [Galidesivir], for which the EC50 in series [1] (Mayaro virus, Vero, 72 h) was greater than 100 µM. Also, in series [1] (Vero cells), the “Activity against MAYV (inhibition of MAYV-induced CPE)” value is given as “not able to inhibit MAYV”. The compound also yielded a CC50 at 3 days in series [2] of 238 ± 36 µM.

`CCC(CC)COC(=O)[C@H](C)N[P@](=O)(OC[C@H]1O[C@@](C#N)(c2ccc3c(N)ncnn23)[C@H](O)[C@@H]1O)Oc1ccccc1` [Remdesivir] registered an EC50 in series [1] (Mayaro virus, Vero, 72 h) greater than 100 µM. Also, the “Activity against MAYV (inhibition of MAYV-induced CPE)” value in series [1] (Vero cells) is on record as “not able to inhibit MAYV”. In series [7], this compound came in with a CC50 at 3 days of 297 ± 101 µM.

For `NC(=O)c1ncn([C@@H]2O[C@H](CO)[C@@H](O)[C@H]2O)n1` [Ribavirin, 1-(β-D-ribofuranosyl)-1H-1,2,4-triazole-3-carboxamide], the EC50 in series [1] (Mayaro virus, Vero, 72 h) was greater than 200 µM; in series [8] (strain TR4675, MOI 0.05) it was 62.5 µM; in series [8] (strain TR4675, MOI 0.1), 255 µM. Besides, the “Activity against MAYV (inhibition of MAYV-induced CPE)” value in series [1] (Vero cells) is listed as “not active against MAYV”. The “blocking MAYV infectivity” value in series [4] is reported as “not effective”. For the same compound, in series [2], the CC50 at 3 days was found to be 250 ± 81 µM. In series [6] (concentrations higher than 200 µM), the “signs of toxicity determined microscopically” value is given as “signs of toxicity were determined microscopically at higher concentrations”.

As for `Cc1ccc(C(=O)Nc2ccc(S(=O)(=O)O)c3cc(S(=O)(=O)O)cc(S(=O)(=O)O)c23)cc1NC(=O)c1cccc(NC(=O)Nc2cccc(C(=O)Nc3cc(C(=O)Nc4ccc(S(=O)(=O)O)c5cc(S(=O)(=O)O)cc(S(=O)(=O)O)c45)ccc3C)c2)c1` [Suramin], it took 124 ± 26 µM to reach a half-maximal effect in series [1] (Mayaro virus, Vero, 72 h) (EC50). For the same compound, in series [4], the “decrease in infectious virus” value is listed as ~ 5 log10; the “reduction … with increasing concentrations” value is on record as “dose-dependent reduction”. Also, the “relative infectivity of MAYV” value in series [4] (all concentrations with the exception of the highest tested (500 µM)) was “not affected”. Further, the “decrease of infectious virus titers” value in series [5] was ~ −2 log10. Further, in series [5] ([…], 10 h pi), the “reduction of intracellular RNA” value is “only when added at early time points (2 h prior to infection and 0 h pi)”. This compound had a CC50 at 3 days in series [7] greater than 2000 µM.
